Measured values taken from article PMC8761912, “Cryptosporidium parvum Pyruvate Kinase Inhibitors With in vivo Anti-cryptosporidial Efficacy” (Frontiers in Microbiology, 2022).

Assays:
[1] = In vitro compound cytotoxicity assay (WST-1); assay type: cell-based; conditions: human, uninfected HCT-8 cells
Protocol: Compounds were tested for cytotoxicity in human ileocecal colorectal adenocarcinoma cells [HCT-8 (HRT-18); ATCC® CCL-244™, CVCL_2478] by using the cell proliferation reagent WST-1 (Roche) according to the manufacturer’s protocol. The WST-1 assay is a quantitative colorimetric assay for measurement of metabolically active cells. This assay is based on the reduction of the tetrazolium salt (WST-1) by viable cells. About 5 × 10^4 HCT-8 cells were seeded per well in 96-well plates and grown overnight in 200 μl of RPMI-1640 medium (without phenol red) (Gibco) supplemented with 2.5 g/L of glucose, 1 mM sodium pyruvate, 1.5 g/L of sodium bicarbonate, 10% heat-inactivated FBS (Gibco), and 1 × Antibiotic-Antimycotic (Gibco) at 37°C with 5% CO2 in a humidified incubator. Upon reaching 80–90% confluency, cells were treated with the chemical compounds reconstituted in DMSO for 24 h. The volume of DMSO was kept below 1% of the total culture volume in all the wells to avoid DMSO cytotoxicity. Control wells received equivalent volumes of DMSO used in the reconstituted compounds. After 24 h of culture, 10 μl of the WST-1 reagent was added to each well, and the plates were incubated for 1 h at 37°C with 5% CO2 under dark conditions. The plates were shaken thoroughly and 150 μl of the medium from each well was transferred to a new clear flat-bottom black 96-well plate (Corning). Absorbance was read at a test wavelength of 440 nm and a reference wavelength of 690 nm using a multi-mode microplate reader (Spectra Max iD3; Molecular Devices, United States). The mean percent toxicity (MPT) of each compound was derived by dividing the difference in absorbance (OD) between the compound-treated cells and the DMSO-treated cells by the absorbance from the DMSO-treated cells and multiplying the product by 100:
(2) MPT=[(MeanODDMSO-treated-MeanODCompound-treated)÷MeanODDMSO-treated]×100.
The half maximal cytotoxic concentration (CC50) values were determined by using non-linear regression analysis in GraphPad PRISM® v8. Assays were performed in triplicate and repeated three times.

C. parvum = experiment: In vivo efficacy in C. parvum-infected IFN-γ KO mice, fecal oocysts load by qPCR; set-up: species or system Cryptosporidium parvum; conditions: for relative potency among the treatments (oocysts load): 2.5 mg/kg NSC638080, NSC303244, NSC252172, 5 mg/kg NSC234945, paromomycin 1,000 mg/kg; for reduction in oocysts load compared to untreated mice / oocysts load compared to untreated mice: 10 mg/kg oral once daily; for reduction in oocysts load compared to untreated mice: day 9 PI; for oocysts load compared to untreated mice / potency, fold higher than paromomycin (1,000 mg/kg): day 10 PI; for potency, fold higher than paromomycin (1,000 mg/kg): 10 mg/kg
Protocol: Eight weeks old male interferon-gamma knockout (IFN-γ KO) mice (B6.129S7-Ifng^TM1Ts/J) were purchased from The Jackson Laboratory, United States, and allowed to quarantine and acclimatize for 1 week before the commencement of experiments. Before the start of the infection assays in mice, the tolerability of each inhibitor was determined by daily oral gavage with varying dosages (0–10 mg/kg mouse bodyweight) in groups of mice (n = 3 mice per group) for 8 days. During this period, mice were monitored daily for any changes in physical and mental activity, feeding, body weight, body temperature, fur condition, and body posture. […] Mice were divided into infected and uninfected groups (n = 3 mice per group) and each individual mouse was housed in a separate cage lined with sterile gauze bedding. Each mouse from the infected group was infected by oral gavage administration of 10^4 C. parvum AUCP-1 isolate oocysts suspended in 50 μl of PBS. Beginning day 3 PI, groups of mice were orally treated with CpPyK inhibitors (at the specified doses), sham (100 μl of 5% DMSO in PBS), or 1,000 mg/kg paromomycin (in sterile water) once daily for a total of 8 days. Fecal pellets were collected daily in individual sterile 15 ml tubes, and submerged in an equivalent volume of PBS containing a cocktail of penicillin (100 units/ml), streptomycin (100 μg/ml), chloramphenicol (34 μg/ml), and amphotericin (0.25 μg/ml), and stored at 4°C until use. Three independent replicate infection assays were performed. Mice were sacrificed at day 11 PI, and 5 cm of the distal small intestine just anterior to the cecum was resected and submerged in 10% neutral buffered formalin and submitted for histopathological processing in the Comparative Biosciences Histology Laboratory at the University of Illinois at Urbana-Champaign. Briefly, intestinal tissues preserved in 10% neutral buffered formalin were washed in 70% ethanol, embedded in paraffin, and sectioned transversely at a thickness of 5 μm. Sections were stained with hematoxylin and eosin. The slides were imaged using a Zeiss microscope fitted with a color camera.
DNA was isolated from 250 mg of feces collected from individual mice using the QIAamp® PowerFecal® Pro DNA kit (Qiagen, United States) following the manufacturer’s protocol. Oocysts load per gram of feces was measured by quantitative real time PCR (qPCR) analysis of the Cp18s rRNA gene (GenBank accession number AF164102) using gene-specific primers: 5′-[…]-3′ (Forward) and 5′-[…]-3′ (Reverse), described previously ([Parr et al., 2007]). To generate a quantification standard curve, fecal samples were obtained from uninfected mice and spiked with 10^8 C. parvum oocysts per gram of feces, followed by isolation of DNA as described above. Ten-fold serial dilutions of the extracted DNA were made and used as quantification standards for qPCR. C. parvum oocysts load quantification for the test mice was performed using DNA samples from the infected feces. Each 20 μl qPCR reaction contained 10 μl of PowerUp™ SYBR™ Green Master Mix (Applied Biosystems, United States), 500 nM of each primer, and 2 μl of DNA template. After 2 min of initial denaturation at 95°C, 40 cycles of denaturation at 95°C for 15 sec and annealing/extension at 60°C for 1 min were performed in a 7500 Real-Time PCR System (Applied Biosystems, United States). The oocyst load per gram of feces was derived by the 7500-system software using the generated quantification standard curves (Supplementary Figure 1).

[2] = Physicochemical properties adapted from PubChem; conditions: based on Supplementary Table 2 properties
Description: Supplementary Table S2. Physicochemical properties of identified CpPyK inhibitors (Adapted from: https://pubchem.ncbi.nlm.nih.gov).
NSC Molecular Molecular Number of Number of Number of Polar number IUPAC name formula weight cLog(p) Hydrogen bond Hydrogen bond rotatable surface donors acceptors bonds area (Å²) […]

[3] = 2.5 mg/kg oral once daily from day 3 PI for 8 days

| SMILES | CC50 at 24 h [1] | relative potency among the treatments (oocysts load) (C. parvum) | oocysts load by day 9 PI vs other treatments and untreated group (C. parvum; 5 mg/kg oral once daily from day 3 PI) | load of C. parvum oocysts shed in feces (C. parvum; 5 mg/kg oral once daily from day 3 PI for 8 days) | reduction in oocysts load compared to untreated mice (C. parvum) | oocysts load compared to untreated mice (C. parvum) | potency, fold higher than paromomycin (1,000 mg/kg) (C. parvum) | conformity to Lipinski's and Veber's rules for drug-likeness [2] | load of C. parvum oocysts shed in feces (C. parvum; [3]) |
| --- | --- | --- | --- | --- | --- | --- | --- | --- | --- |
| c1ccc(-c2nnc(-c3ccccn3)[nH]2)nc1 [NSC234945, 2-(3-pyridin-2-yl-1H-1,2,4-triazol-5-yl)pyridine] | 432 µM | highest potency | significantly (P < 0.05) lower oocysts loads | significant reduction | about threefold reduction in oocysts load | about ninefold lower oocysts load | about 2.5 fold | conform |  |
| CCOc1ccc(/C=C2\CCc3ccccc3C2=O)cc1 [NSC252172, (2E)-2-[(4-ethoxyphenyl)methylidene]-3,4-dihydronaphthalen-1-one] | 266 µM |  |  |  | about threefold reduction in oocysts load | about ninefold lower oocysts load | about 2.5 fold | conform | significant reduction |
| Cc1cc2c(c(C#N)c1C)NC=NC2C (stereo not drawn) [NSC303244, 4,6,7-trimethyl-1,4-dihydroquinazoline-8-carbonitrile] | 660 µM |  |  |  |  |  |  | conform | significant reduction |
| N#C/C(=C\c1cc(O)c(O)c(O)c1)C(N)=O [NSC638080, (E)-2-cyano-3-(3,4,5-trihydroxyphenyl)prop-2-enamide] | 750 µM | least efficacy |  |  |  |  |  | conform | significant reduction |
